In experiment [1] the test system is mitochondrial apoptosis signaling pathway proteins (Bax, Bcl-2, Caspase-3, and PARP). Briefly: Western blot of mitochondrial apoptosis signaling proteins in HaCaT cells. To be noted: 0.1, 1, 10 μM, 24 hours. Format: cell-based, human. The method, then: (§1) Mitochondrial apoptosis: Bax is a pro-apoptotic protein that promotes apoptosis, and Bcl-2 is a pro-survival protein that suppresses apoptosis; the balance between these two proteins is important in regulating apoptosis.
(§2) Specifically, the expressions of proteins involved in mitochondrial apoptotic signaling pathways were analyzed when HaCaT and DP cells were treated with RKLW and RQLW at 0.1, 1, and 10 μM and cultured for 24 hours, and the results are shown in FIG. 7.
Background: Immunoblotting shows a protein as a band on a membrane.

For the next experiment, the system named is HaCaT cells. Nature of the experiment: Cell viability (CCK-8) in human keratinocytes. Format: cell-based. The method, then:
(§3) In order to evaluate the efficacy of peptide treatment (RKLW and RQLW) to promote skin cell proliferation, human keratinocytes and dermal papilla (DP) cells were treated with RKLW and RQLW at 0.1, 1, and 10 μM. After being cultured for 24 and 48 hours, cells were treated with Cell Counting Kit-8 (CCK-8) to measure cell viability, and the results are shown in FIG. 3.

Experiment [2] relates to androgen receptor (AR) and its target proteins (DKK-1 and TGF-β). Nature of the experiment: Western blot of AR and its target proteins in HaCaT cells. Format: cell-based, human. The conditions noted are these: 0.1, 1, 10 μM, 24 hours. The method, then:
(§4) The expression and phosphorylation of protein markers involved in alopecia-related signal transduction pathways were evaluated after treatment with peptides (RKLW and RQLW).
(§5) DHT-AR and Wnt/beta-catenin pathway: An androgen receptor (AR) is a protein that binds to dihydrotestosterone (DHT), a representative inducer of androgenetic alopecia, and when the AR is activated by binding to DHT, Dickkopf-1 (DKK-1) and transforming growth factor beta (TGF-β) are expressed and promote alopecia. In addition, DKK-1, which is expressed by the activation of the AR, suppresses the Wnt signaling pathway involved in the development and growth of hair follicles, and TGF-β induces alopecia by suppressing the growth of hair follicle cells.
(§6) Specifically, the expressions of proteins involved in major signaling pathways related to hair growth were analyzed when HaCaT and DP cells were treated with RKLW and RQLW at 0.1, 1, and 10 μM and cultured for 24 hours.
(§7) The protein immunoblot (Western blot) results of the expression of the AR and its target proteins (DKK-1 and TGF-β) in HaCaT and DP cells are shown in FIG. 5. […] When DP cells were treated with RKLW or RQLW, the expression levels of both the AR and its target protein TGF-β was reduced.

The test system is the same in experiment [3]. Briefly: Western blot of AR and its target proteins in DP cells. Format: cell-based, human. To be noted: 0.1, 1, 10 μM, 24 hours. The method, then:
as §4, §5, §6, §7

The test system of experiment [4] is cell cycle marker proteins (Cyclin D1, CDK4, Cyclin E1, and CDK2). Nature of the experiment: Western blot of cell cycle marker proteins in HaCaT cells. To be noted: 0.1, 1, 10 μM, 24 hours. Type of experiment: cell-based, human. The method, then:
(§8) Cell cycle: maintaining the G1 phase of the cell cycle of scalp skin cells plays an important role in maintaining scalp health.
(§9) Specifically, the expressions of Cyclin D/CDK4 and Cyclin E/CDK2, which activate the G1 phase, were analyzed when HaCaT and DP cells were treated with RKLW and RQLW at 0.1, 1, and 10 µM and cultured for 24 hours, and the results are shown in FIG. 8.

Experiment [5] concerns dermal papilla (DP) cells. Briefly: Cell viability (CCK-8) in dermal papilla cells. Format: cell-based, human. The method, then:
as §3

Experiment [6] deals with Wnt signaling pathway proteins (p-GSK-3β and β-catenin). Nature of the experiment: Western blot of Wnt signaling pathway proteins in HaCaT cells. Format: cell-based, human. The conditions noted are these: 0.1, 1, 10 μM, 24 hours. The method, then:
as §6
(§10) Furthermore, the protein immunoblot (Western blot) results showing differential expressions and phosphorylation of proteins involved in Wnt signaling pathway in HaCaT and DP cells are shown in FIG. 6. […] When DP cells were treated with RKLW or RQLW, the expression of p-GSK-3β was not increased, but the expression of β-catenin was increased, meaning that in DP cells, RKLW or RQLW accumulates β-catenin through a pathway other than GSK-3β to activate Wnt signaling.

Experiment [7] shares this test system. Nature of the experiment: Western blot of Wnt signaling pathway proteins in DP cells. Format: cell-based, human. The conditions noted are these: 0.1, 1, 10 μM, 24 hours. The method, then: as §6, §10
In experiment [8] the test system is mitochondrial apoptosis signaling pathway proteins (Bax, Bcl-2, Caspase-3, and PARP). Nature of the experiment: Western blot of mitochondrial apoptosis signaling proteins in DP cells. Type of experiment: cell-based, human. The conditions noted are these: 0.1, 1, 10 μM, 24 hours. The method, then: as §1, §2
Experiment [9] concerns cell cycle marker proteins (Cyclin D1, CDK4, Cyclin E1, and CDK2). Nature of the experiment: Western blot of cell cycle marker proteins in DP cells. The conditions noted are these: 0.1, 1, 10 μM, 24 hours. Type of experiment: cell-based, human. The method, then: as §8, §9

This note sets out measurements from patent US20250121025A1, “SCALP-DERIVED PEPTIDES ALLEVIATING HAIR LOSS SYMPTOMS” (NEWTREE CO., LTD, priority 2023, published 2025).

Turning to RKLW (listed as Homo sapiens), in [1], the “effect of suppressing apoptosis” value was “relatively insignificant effect”. Further, in the experiment on HaCaT cells (24 and 48 hours, CCK-8), the “cell viability of HaCaT cells” value was “did not show statistical significance”. Also, in [2], the AR expression result is reported as “no significant change”, the “expression level of DKK-1” value is “decreased” and the “expression level of TGF-β” value was “decreased”. In [3], the “expression level of AR” value is “reduced” and the “expression level of TGF-β” value is “reduced”. In [4], the “expression level of Cyclin D/CDK4” value is “increased” and the “expression level of Cyclin E/CDK2” value is listed as “increased”. In experiment [5] (1 and 10 μM, 24 hours), the “cell viability of dermal papilla cells” value was “significantly increased cell viability”. Further, the “treatment concentration at which cell viability was significantly increased” value in [5] (48 hours) was no more than 10 µM. Also, in [6], the “expression level of p-GSK-3β” value is on record as “increased” and the “expression level of β-catenin” value is recorded as “increased”. Moreover, in experiment [7], the “expression of p-GSK-3β” value was “not increased” and the “expression of β-catenin” value was “increased”. The “expression ratio of Bax/Bcl-2” value in experiment [8] is listed as “unable to regulate”. Further, in experiment [9], the “expression level of Cyclin D/CDK4” value is “increased” and the “expression level of Cyclin E/CDK2” value was “did not affect”.
For the substance RQLW (listed as Homo sapiens), in [1], the “effect of suppressing apoptosis” value is recorded as “showed an effect of suppressing apoptosis”, the “expression ratio of Bax/Bcl-2” value is listed as “tended to decrease”, the “protein level of PARP” value is listed as “tended to decrease” and the “protein level of cleaved caspase-3” value is “tended to decrease”. In the experiment on HaCaT cells (after 24 hours), the “concentration at which cell viability was significantly increased” value was no less than 100 µM. Also, in the experiment with HaCaT cells (after 48 hours), the “concentration at which cell viability was significantly increased” value is no less than 10 µM. Besides, in experiment [2], the AR expression result is “no significant change”, the “expression level of DKK-1” value is “decreased” and the “expression level of TGF-β” value is “decreased”. Moreover, in experiment [3], the “expression level of AR” value is reported as “reduced” and the “expression level of TGF-β” value is “reduced”. Also, in [4], the “expression level of Cyclin D/CDK4” value is listed as “increased” and the “expression level of Cyclin E/CDK2” value was “increased”. In [5] (1 and 10 μM, 24 hours), the “cell viability of dermal papilla cells” value was “significantly increased cell viability”. In addition, in experiment [5] (48 hours), the “cell viability of dermal papilla cells” value is listed as “no significant difference”. In [6], the “expression level of p-GSK-3β” value is “increased” and the “expression level of β-catenin” value is given as “increased”. In experiment [7], the “expression of p-GSK-3β” value is on record as “not increased” and the “expression of β-catenin” value is reported as “increased”. For the same substance, in experiment [8], the “expression ratio of Bax/Bcl-2” value is recorded as “unable to regulate”. Also, in [9], the “expression level of Cyclin D/CDK4” value is “increased” and the “expression level of Cyclin E/CDK2” value is “did not affect”.
